In ChEMBL document CHEMBL5678818, “Discovery of potent SOS1 inhibitors that block RAS activation via disruption of the RAS-SOS1 interaction” (Proc Natl Acad Sci U S A, 2019):

Legend:
[1] = molecular target: Testis-specific serine/threonine-protein kinase 3 (Homo sapiens) (UniProt Q96PN8); assay: Inhibition of TSSK3 (unknown origin) assessed as residual activity at 1000 nM by KINOMEscan analysis relative to control
[2] = molecular target: AP2-associated protein kinase 1 (Homo sapiens) (UniProt Q2M2I8); assay: Inhibition of AAK1 (unknown origin) assessed as residual activity at 100 nM by KINOMEscan analysis relative to control
[3] = molecular target: T1, Serine/threonine-protein kinase TAO2 (Homo sapiens) (UniProt Q9UL54); assay: Inhibition of TAOK2 (unknown origin) assessed as residual activity at 100 nM by KINOMEscan analysis relative to control
T1 sequence (whole entry): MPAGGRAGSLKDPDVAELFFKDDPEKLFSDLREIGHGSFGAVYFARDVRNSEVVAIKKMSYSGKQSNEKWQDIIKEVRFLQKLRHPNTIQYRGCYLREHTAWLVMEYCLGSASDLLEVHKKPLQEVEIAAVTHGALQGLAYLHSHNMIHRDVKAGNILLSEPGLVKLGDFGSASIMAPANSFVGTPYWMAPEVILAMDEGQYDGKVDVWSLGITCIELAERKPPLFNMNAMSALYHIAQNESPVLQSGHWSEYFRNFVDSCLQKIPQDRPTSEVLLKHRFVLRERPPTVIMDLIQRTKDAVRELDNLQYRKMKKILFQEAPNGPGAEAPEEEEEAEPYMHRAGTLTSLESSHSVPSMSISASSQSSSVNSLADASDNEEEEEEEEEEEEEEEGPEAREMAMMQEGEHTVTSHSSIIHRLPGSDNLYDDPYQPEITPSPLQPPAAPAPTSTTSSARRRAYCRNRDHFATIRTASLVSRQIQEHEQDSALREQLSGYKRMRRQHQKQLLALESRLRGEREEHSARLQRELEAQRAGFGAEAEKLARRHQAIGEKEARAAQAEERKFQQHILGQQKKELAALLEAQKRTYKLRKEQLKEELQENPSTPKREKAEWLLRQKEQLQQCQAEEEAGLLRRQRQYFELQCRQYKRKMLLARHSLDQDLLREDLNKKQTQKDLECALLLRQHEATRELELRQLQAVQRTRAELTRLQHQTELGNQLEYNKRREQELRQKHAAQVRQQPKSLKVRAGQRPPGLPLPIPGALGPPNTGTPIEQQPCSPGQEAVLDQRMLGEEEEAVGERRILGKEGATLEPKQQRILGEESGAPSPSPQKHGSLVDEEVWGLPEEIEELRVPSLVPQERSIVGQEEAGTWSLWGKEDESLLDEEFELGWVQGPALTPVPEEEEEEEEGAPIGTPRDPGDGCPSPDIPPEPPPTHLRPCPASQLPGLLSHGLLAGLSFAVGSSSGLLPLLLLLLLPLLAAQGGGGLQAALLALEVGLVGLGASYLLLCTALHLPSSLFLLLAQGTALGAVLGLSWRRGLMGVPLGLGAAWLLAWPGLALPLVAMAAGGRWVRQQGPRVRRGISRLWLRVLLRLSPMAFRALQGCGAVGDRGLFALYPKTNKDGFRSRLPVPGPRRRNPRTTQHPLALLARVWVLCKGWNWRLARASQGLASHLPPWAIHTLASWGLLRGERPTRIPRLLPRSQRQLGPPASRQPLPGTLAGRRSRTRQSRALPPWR

[4] = molecular target: Serine/threonine-protein kinase 24 (Homo sapiens) (UniProt Q9Y6E0); assay: Inhibition of MST3 (unknown origin) assessed as residual activity at 100 nM by KINOMEscan analysis relative to control
[5] = molecular target: Casein kinase I isoform epsilon (Homo sapiens) (UniProt P49674); assay: Inhibition of CSNK1E (unknown origin) assessed as residual activity at 100 nM by KINOMEscan analysis relative to control
[6] = molecular target: Epidermal growth factor receptor (Homo sapiens, UniProt P00533); assay: Inhibition of EGFR (unknown origin) assessed as residual activity at 100 nM by KINOMEscan analysis relative to control
[7] = molecular target: T2, Receptor-interacting serine/threonine-protein kinase 1 (Homo sapiens) (UniProt Q13546); assay: Inhibition of RIPK1 (unknown origin) assessed as residual activity at 100 nM by KINOMEscan analysis relative to control
T2 sequence (whole entry): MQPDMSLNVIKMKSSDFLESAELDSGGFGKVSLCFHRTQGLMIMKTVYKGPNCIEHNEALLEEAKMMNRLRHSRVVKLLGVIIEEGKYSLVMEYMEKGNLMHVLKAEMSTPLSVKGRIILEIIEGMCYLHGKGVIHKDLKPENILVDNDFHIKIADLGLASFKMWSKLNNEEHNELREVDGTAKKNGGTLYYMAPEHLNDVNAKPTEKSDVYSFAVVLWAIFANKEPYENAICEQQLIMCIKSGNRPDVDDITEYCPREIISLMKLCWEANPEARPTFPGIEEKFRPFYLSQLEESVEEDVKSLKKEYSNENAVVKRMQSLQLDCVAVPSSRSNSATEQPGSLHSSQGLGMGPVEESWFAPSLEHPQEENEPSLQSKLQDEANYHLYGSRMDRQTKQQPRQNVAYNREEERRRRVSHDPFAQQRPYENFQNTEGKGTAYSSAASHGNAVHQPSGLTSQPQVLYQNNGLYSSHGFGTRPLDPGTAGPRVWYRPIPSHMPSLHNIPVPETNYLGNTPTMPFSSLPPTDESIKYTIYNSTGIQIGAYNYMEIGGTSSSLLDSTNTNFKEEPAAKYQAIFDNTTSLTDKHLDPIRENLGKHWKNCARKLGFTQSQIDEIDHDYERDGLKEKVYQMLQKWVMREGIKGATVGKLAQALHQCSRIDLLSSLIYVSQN

[8] = molecular target: Serine/threonine-protein kinase 25 (Homo sapiens) (UniProt O00506); assay: Inhibition of YSK1 (unknown origin) assessed as residual activity at 100 nM by KINOMEscan analysis relative to control
Chain of Serine/threonine-protein kinase 25 (Homo sapiens) (O00506 whole entry, looked up): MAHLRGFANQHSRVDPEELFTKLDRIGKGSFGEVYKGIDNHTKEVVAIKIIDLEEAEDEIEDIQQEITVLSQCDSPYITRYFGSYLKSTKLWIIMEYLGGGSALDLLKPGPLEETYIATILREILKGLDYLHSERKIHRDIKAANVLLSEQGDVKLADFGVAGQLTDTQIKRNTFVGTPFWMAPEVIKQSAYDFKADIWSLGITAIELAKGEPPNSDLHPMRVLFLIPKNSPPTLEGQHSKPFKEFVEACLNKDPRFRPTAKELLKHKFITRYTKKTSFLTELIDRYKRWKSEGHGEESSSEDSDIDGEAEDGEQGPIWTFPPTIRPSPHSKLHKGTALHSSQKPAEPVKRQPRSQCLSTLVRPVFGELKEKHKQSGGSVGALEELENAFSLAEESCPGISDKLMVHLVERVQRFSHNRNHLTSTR

Chain of Epidermal growth factor receptor (P00533 whole entry): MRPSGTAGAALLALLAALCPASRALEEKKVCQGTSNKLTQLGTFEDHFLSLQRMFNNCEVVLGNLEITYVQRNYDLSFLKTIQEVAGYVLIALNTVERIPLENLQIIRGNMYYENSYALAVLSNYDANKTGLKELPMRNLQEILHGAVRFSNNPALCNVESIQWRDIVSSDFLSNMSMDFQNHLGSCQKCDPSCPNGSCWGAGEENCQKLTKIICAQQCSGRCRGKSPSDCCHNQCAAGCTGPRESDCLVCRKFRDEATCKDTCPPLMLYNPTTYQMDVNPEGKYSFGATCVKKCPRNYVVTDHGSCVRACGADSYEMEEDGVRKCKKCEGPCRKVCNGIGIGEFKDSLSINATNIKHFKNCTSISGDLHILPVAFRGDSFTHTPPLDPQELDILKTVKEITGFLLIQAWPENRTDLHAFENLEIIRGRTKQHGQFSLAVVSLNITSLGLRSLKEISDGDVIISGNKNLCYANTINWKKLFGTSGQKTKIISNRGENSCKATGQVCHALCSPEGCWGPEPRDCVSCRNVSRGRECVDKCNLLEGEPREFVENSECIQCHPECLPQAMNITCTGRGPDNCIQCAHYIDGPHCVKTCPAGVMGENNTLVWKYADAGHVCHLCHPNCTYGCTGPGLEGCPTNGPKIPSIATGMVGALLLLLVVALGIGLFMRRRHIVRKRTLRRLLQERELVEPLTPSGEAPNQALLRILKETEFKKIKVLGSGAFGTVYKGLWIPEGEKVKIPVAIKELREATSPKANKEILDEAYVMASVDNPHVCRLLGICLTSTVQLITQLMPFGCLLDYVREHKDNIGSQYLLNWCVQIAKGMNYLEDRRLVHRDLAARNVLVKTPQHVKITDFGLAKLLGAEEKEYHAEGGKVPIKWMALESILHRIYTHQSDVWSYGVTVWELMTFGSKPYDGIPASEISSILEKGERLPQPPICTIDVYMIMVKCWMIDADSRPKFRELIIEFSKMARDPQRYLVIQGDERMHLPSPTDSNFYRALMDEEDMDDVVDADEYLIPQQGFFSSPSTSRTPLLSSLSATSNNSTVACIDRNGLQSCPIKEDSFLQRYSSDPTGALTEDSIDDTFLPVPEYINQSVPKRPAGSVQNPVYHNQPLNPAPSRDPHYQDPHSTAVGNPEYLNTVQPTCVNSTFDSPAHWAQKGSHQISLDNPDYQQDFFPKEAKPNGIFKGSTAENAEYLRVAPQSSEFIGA
Chain of Serine/threonine-protein kinase 24 (Homo sapiens) (Q9Y6E0 whole entry, looked up, canonical isoform): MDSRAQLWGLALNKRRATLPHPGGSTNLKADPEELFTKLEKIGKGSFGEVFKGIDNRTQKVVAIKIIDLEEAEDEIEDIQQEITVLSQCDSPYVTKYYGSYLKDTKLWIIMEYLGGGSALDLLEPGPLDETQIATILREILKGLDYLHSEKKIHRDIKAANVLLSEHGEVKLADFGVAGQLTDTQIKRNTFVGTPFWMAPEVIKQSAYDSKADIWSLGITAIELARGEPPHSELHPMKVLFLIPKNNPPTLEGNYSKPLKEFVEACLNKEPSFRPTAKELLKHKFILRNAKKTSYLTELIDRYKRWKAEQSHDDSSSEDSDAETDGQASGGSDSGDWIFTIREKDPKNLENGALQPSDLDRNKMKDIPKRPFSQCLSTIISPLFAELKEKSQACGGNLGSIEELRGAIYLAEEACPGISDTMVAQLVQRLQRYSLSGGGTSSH
Chain of Testis-specific serine/threonine-protein kinase 3 (Homo sapiens) (Q96PN8 whole entry): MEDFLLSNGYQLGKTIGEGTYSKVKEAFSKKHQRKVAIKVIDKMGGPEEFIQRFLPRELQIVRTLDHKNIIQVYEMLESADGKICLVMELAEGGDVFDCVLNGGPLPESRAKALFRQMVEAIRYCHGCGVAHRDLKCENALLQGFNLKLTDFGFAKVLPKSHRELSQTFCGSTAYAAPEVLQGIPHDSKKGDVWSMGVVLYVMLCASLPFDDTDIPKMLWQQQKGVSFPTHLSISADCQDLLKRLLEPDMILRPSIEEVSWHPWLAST
Chain of AP2-associated protein kinase 1 (Homo sapiens) (Q2M2I8 whole entry, looked up): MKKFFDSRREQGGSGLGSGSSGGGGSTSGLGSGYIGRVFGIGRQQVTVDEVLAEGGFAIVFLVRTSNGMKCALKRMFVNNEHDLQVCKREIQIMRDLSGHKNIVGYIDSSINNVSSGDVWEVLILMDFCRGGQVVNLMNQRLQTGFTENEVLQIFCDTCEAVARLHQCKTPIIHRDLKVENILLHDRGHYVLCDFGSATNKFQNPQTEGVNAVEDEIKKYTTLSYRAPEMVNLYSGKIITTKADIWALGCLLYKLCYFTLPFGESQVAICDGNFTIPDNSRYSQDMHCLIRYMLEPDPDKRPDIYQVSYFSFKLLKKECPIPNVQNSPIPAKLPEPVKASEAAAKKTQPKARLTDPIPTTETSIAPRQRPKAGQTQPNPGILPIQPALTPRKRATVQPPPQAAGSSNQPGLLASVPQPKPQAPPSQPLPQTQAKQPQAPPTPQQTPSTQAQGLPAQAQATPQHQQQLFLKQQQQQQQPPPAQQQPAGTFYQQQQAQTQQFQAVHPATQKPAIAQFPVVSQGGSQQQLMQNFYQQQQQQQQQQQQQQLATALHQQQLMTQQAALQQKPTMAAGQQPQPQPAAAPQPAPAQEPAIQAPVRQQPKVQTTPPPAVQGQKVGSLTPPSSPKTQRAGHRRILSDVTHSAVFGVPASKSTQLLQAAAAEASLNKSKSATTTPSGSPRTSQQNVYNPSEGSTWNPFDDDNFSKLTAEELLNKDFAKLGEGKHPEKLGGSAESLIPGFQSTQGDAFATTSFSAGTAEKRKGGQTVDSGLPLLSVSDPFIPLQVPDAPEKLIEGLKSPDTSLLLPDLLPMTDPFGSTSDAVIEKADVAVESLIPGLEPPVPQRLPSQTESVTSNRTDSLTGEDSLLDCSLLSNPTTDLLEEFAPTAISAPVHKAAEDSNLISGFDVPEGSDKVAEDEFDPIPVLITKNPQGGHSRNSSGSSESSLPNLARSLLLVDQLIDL
Chain of Casein kinase I isoform epsilon (Homo sapiens) (P49674 whole entry, looked up, canonical isoform): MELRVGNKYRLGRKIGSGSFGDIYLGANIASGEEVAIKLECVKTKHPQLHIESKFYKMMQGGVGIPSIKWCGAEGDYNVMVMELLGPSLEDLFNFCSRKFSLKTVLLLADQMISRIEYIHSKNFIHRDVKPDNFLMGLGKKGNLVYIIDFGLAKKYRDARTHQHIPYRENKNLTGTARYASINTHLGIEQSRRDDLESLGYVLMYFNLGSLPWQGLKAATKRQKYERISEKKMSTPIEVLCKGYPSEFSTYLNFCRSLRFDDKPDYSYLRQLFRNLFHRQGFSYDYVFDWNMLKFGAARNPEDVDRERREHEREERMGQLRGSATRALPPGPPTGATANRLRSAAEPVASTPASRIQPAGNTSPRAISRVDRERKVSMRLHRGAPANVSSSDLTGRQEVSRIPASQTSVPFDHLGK

SMILES: COc1cc2nc(C)nc(N[C@H](C)c3cccc(-c4cn[nH]c4)c3)c2cc1OC
- Activity [1]: 77%

SMILES: COc1cc2ncnc(N[C@H](C)c3cccc4ccccc34)c2cc1OC
- Activity [2]: 74%
- Activity [3]: 94%
- Activity [4]: 99%
- Activity [5]: 97%
- Activity [6]: 93%
- Activity [7]: 23%
- Activity [8]: 100%
